Results: patent US7932262B2 (Novartis AG, priority 2006, dated 2011)
pEC50, pIC50: −log10 of the molar value.

Assays:
[1] = test system: PC-3 cells; assay: Cell Proliferation Assay (Cell Titer Glo), PC-3 cell line; format: cell-based; settings: Homo sapiens, PC-3, Cell Proliferation Assay, PC3; read-out: CPEC50 PC3
Summary of the method: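 PC-3 cells, 1000 cells/well, left to adhere 3-5 h, then exposed for 3 days at 37° C to compounds as 1:3 serial dilutions from 500× DMSO stocks diluted in growth medium. Medium then replaced with fresh medium and viability read by Cell Titer Glo luminescence.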

[2] = target: T1, PDK1 kinase (Homo sapiens, UniProt O15530); assay: PDK1 Kinase Alpha Screen Assay; format: biochemical; settings: PDK1 Kinase Alpha Screen Assay; read-out: PDK1 IC50
T1 sequence (O15530 1-556): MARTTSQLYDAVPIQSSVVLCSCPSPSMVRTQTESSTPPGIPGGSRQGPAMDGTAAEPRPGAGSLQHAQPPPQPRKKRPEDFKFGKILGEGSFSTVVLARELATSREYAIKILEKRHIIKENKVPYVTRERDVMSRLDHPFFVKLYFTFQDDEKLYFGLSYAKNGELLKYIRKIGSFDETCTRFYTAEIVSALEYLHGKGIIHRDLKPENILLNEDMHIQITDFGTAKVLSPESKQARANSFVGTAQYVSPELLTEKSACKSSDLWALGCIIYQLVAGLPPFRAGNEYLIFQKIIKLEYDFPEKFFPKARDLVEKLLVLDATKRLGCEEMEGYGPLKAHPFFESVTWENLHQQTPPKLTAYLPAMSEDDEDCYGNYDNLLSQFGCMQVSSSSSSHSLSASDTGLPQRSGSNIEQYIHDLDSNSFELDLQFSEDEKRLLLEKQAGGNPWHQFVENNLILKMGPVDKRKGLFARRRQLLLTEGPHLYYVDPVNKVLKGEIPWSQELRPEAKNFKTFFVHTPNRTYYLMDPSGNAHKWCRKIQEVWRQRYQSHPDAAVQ
Summary of the method: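 PDK1 phosphorylated 50 nM biotinylated PDK1-4 peptide with 10 uM ATP in Tris pH 7.5, 10 mM MgCl2, 2 mM DTT, 2.5% DMSO for 3-18 hours. After EDTA stop, phosphopeptide was detected by AlphaScreen using phospho-(Ser/Thr) PKA substrate antibody with protein A/streptavidin beads, read after overnight incubation.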

| SMILES | pEC50 [1] | pIC50 [2] |
| --- | --- | --- |
| O=S(=O)(c1cccc(Nc2ncc3cccc(-c4ccc(NCCN5CCCC5)nc4)c3n2)c1)N1CCOCC1 [Compound 399, N-(3-(morpholinosulfonyl)phenyl)-8-(6-(2-(pyrrolidin-1-yl)ethylamino)pyridin-3-yl)quinazolin-2-amine] | > 5.30 | > 5.30 |
| CNC(=O)Cc1ccc(Nc2ncc3cccc(-c4ccc(NCCN5CCCC5)nc4)c3n2)cc1 [Compound 400, N-methyl-2-(4-(8-(6-(2-(pyrrolidin-1-yl)ethylamino)pyridin-3-yl)quinazolin-2-ylamino)phenyl)acetamide] | > 5.30 | > 5.30 |
| CNC(=O)Cc1cccc(Nc2ncc3cccc(-c4ccc(NCCN5CCCC5)nc4)c3n2)c1 [Compound 401, N-methyl-2-(3-(8-(6-(2-(pyrrolidin-1-yl)ethylamino)pyridin-3-yl)quinazolin-2-ylamino)phenyl)acetamide] | > 5.30 | > 5.30 |
| CS(=O)(=O)c1cccc(Nc2ncc3cccc(-c4ccc(NCCN5CCCC5)nc4)c3n2)c1 [Compound 402, N-(3-(methylsulfonyl)phenyl)-8-(6-(2-(pyrrolidin-1-yl)ethylamino)pyridin-3-yl)quinazolin-2-amine] | 5.00 to 5.30 | > 5.30 |
| O=C(c1ccc(Nc2ncc3cccc(-c4ccc(NCCN5CCCC5)nc4)c3n2)cc1)N1CCOCC1 [Compound 403, morpholino(4-(8-(6-(2-(pyrrolidin-1-yl)ethylamino)pyridin-3-yl)quinazolin-2-ylamino)phenyl)methanone] | > 5.30 | > 5.30 |
| NS(=O)(=O)c1ccc(Nc2ncc3cccc(-c4cnc(NCCN5CCCC5)c(C(F)(F)F)c4)c3n2)cc1 [Compound 404, 4-(8-(6-(2-(pyrrolidin-1-yl)ethylamino)-5-(trifluoromethyl)pyridin-3-yl)quinazolin-2-ylamino)benzenesulfonamide] | > 5.30 | > 5.30 |
| COc1ccc(Oc2cccc3cnc(Nc4ccc(S(N)(=O)=O)cc4)nc23)cn1 [Compound 410, 4-(8-(6-methoxypyridin-3-yloxy)quinazolin-2-ylamino)benzenesulfonamide] | > 5.30 | > 5.30 |
| NS(=O)(=O)c1ccc(Nc2ncc3cccc(Oc4ccc(F)nc4)c3n2)cc1 [Compound 413, 4-(8-(6-fluoropyridin-3-yloxy)quinazolin-2-ylamino)benzenesulfonamide] | > 5.30 | > 5.30 |
| Nc1ccc(S(=O)(=O)N(CCN2CCCC2)c2ncc3cccc(OC4CCNCC4)c3n2)cc1 [Compound 422, 4-amino-N-(8-(piperidin-4-yloxy)quinazolin-2-yl)-N-(2-(pyrrolidin-1-yl)ethyl)benzenesulfonamide] | 5.00 to 5.30 | 5.00 to 5.30 |
| CN1CCN(c2ccc(-c3cccc4cnc(Nc5ccc(N6CCOCC6)nc5)nc34)cn2)CC1 [Compound 423, 8-(6-(4-methylpiperazin-1-yl)pyridin-3-yl)-N-(6-morpholinopyridin-3-yl)quinazolin-2-amine] | > 5.30 | > 5.30 |
| c1cc(-c2ccc(NCCN3CCCC3)nc2)c2nc(Nc3ccc(N4CCOCC4)nc3)ncc2c1 [Compound 424, N-(6-morpholinopyridin-3-yl)-8-(6-(2-(pyrrolidin-1-yl)ethylamino)pyridin-3-yl)quinazolin-2-amine] | > 5.30 | > 5.30 |
| O=S(=O)(c1ccc(Nc2ncc3cccc(-c4ccc(NCCN5CCCC5)nc4)c3n2)cc1)N1CCOCC1 [Compound 425, N-(4-(morpholinosulfonyl)phenyl)-8-(6-(2-(pyrrolidin-1-yl)ethylamino)pyridine-3-yl)quinazolin-2-amine] | > 5.30 | > 5.30 |
| c1ccc(Nc2ncc3cccc(-c4ccc(NCCN5CCCC5)nc4)c3n2)cc1 [Compound 426, N-phenyl-8-(6-(2-(pyrrolidin-1-yl)ethylamino)pyridin-3-yl)quinazolin-2-amine] | > 5.30 | > 5.30 |
| N#Cc1ccc(Nc2ncc3cccc(-c4ccc(NCCN5CCCC5)nc4)c3n2)cc1 [Compound 427, 4-(8-(6-(2-(pyrrolidin-1-yl)ethylamino)pyridin-3-yl)quinazolin-2-ylamino)benzonitrile] | > 5.30 | > 5.30 |
| Fc1cc(F)cc(Nc2ncc3cccc(-c4ccc(NCCN5CCCC5)nc4)c3n2)c1 [Compound 428, N-(3,5-difluorophenyl)-8-(6-(2-(pyrrolidin-1-yl)ethylamino)pyridin-3-yl)quinazolin-2-amine] | > 5.30 | > 5.30 |
| NS(=O)(=O)c1ccc(Nc2ncc3c(Br)ccc(OC4CCNCC4)c3n2)cc1 [Compound 429, 4-(5-bromo-8-(piperidin-4-yloxy)quinazolin-2-ylamino)benzenesulfonamide] | 5.00 to 5.30 | > 5.30 |
| O=S(=O)(c1ccc(Nc2ncc3c(Br)ccc(OC4CCNCC4)c3n2)cc1)N1CCOCC1 [Compound 430, 5-bromo-N-(4-(morpholinosulfonyl)phenyl)-8-(piperidin-4-yloxy)quinazolin-2-amine] | > 5.30 | > 5.30 |
| Fc1cc(Nc2ncc3cccc(-c4ccc(NCCN5CCCC5)nc4)c3n2)ccc1N1CCOCC1 [Compound 431, N-(3-fluoro-4-morpholinophenyl)-8-(6-(2-(pyrrolidin-1-yl)ethylamino)pyridine-3-yl)quinazolin-2-amine] | > 5.30 | > 5.30 |
| CN1CCN(c2ccc(-c3cccc4cnc(Nc5ccc(N6CCOCC6)c(F)c5)nc34)cn2)CC1 [Compound 432, N-(3-fluoro-4-morpholinophenyl)-8-(6-(4-methylpiperazin-1-yl)pyridin-3-yl)quinazolin-2-amine] | > 5.30 | > 5.30 |
| Fc1cccc(Nc2ncc3c(Br)ccc(OC4CCNCC4)c3n2)c1 [Compound 433, 5-bromo-N-(3-fluorophenyl)-8-(piperidin-4-yloxy)quinazolin-2-amine] | > 5.30 | > 5.30 |
| Fc1ccc(Nc2ncc3c(Br)ccc(OC4CCNCC4)c3n2)cc1 [Compound 434, 5-bromo-N-(4-fluorophenyl)-8-(piperidin-4-yloxy)quinazolin-2-amine] | > 5.30 | > 5.30 |

The remaining lines, values ahead:

| pEC50 [1] | pIC50 [2] | SMILES |
| --- | --- | --- |
| 5.00 to 5.30 | > 5.30 | Brc1ccc(OC2CCNCC2)c2nc(Nc3ccc(N4CCOCC4)cc3)ncc12 [Compound 435, 5-bromo-N-(4-morpholinophenyl)-8-(piperidin-4-yloxy)quinazolin-2-amine] |
| > 5.30 | > 5.30 | CN1CCN(c2ccc(-c3cccc4cnc(Nc5ccc(C(F)(F)F)nc5)nc34)cn2)CC1 [Compound 436, 8-(6-(4-methylpiperazin-1-yl)pyridin-3-yl)-N-(6-(trifluoromethyl)pyridine-3-yl)quinazolin-2-amine] |
| > 5.30 | 5.00 to 5.30 | O=S(=O)(c1cccc(Nc2ncc3c(Br)ccc(OC4CCNCC4)c3n2)c1)N1CCOCC1 [Compound 437, 5-bromo-N-(3-(morpholinosulfonyl)phenyl)-8-(piperidin-4-yloxy)quinazolin-2-amine] |
| > 5.30 | > 5.30 | O=C(c1ccc(Nc2ncc3c(Br)ccc(OC4CCNCC4)c3n2)cc1)N1CCOCC1 [Compound 438, (4-(5-bromo-8-(piperidin-4-yloxy)quinazolin-2-ylamino)phenyl)(morpholino)methanone] |
| > 5.30 | > 5.30 | CC(C)NC(=O)c1ccc(Nc2ncc3cccc(OC4CCNCC4)c3n2)cc1F [Compound 439, 2-fluoro-N-isopropyl-4-(8-(piperidin-4-yloxy)quinazolin-2-ylamino)benzamide] |
| > 5.30 | > 5.30 | O=C(NC1CCOCC1)c1ccc(Nc2ncc3cccc(OC4CCNCC4)c3n2)cc1F [Compound 440, 2-fluoro-4-(8-(piperidin-4-yloxy)quinazolin-2-ylamino)-N-(tetrahydro-2H-pyran-4-yl)benzamide] |
| 5.00 to 5.30 | > 5.30 | O=C(O)c1ccc(Nc2ncc3cccc(OC4CCNCC4)c3n2)cc1F [Compound 441, 2-fluoro-4-(8-(piperidin-4-yloxy)quinazolin-2-ylamino)benzoic acid] |
| > 5.30 | > 5.30 | CC(=O)Nc1cccc(Nc2ncc3cccc(-c4ccc(N5CCN(C)CC5)nc4)c3n2)c1 [Compound 442, N-(3-(8-(6-(4-methylpiperazin-1-yl)pyridin-3-yl)quinazolin-2-ylamino)phenyl)acetamide] |
| > 5.30 | > 5.30 | CN1CCN(c2ccc(-c3cccc4cnc(Nc5cccc(-c6cnco6)c5)nc34)cn2)CC1 [Compound 443, 8-(6-(4-methylpiperazin-1-yl)pyridin-3-yl)-N-(3-(oxazol-5-yl)phenyl)quinazolin-2-amine] |
| > 5.30 | > 5.30 | O=C(NC1CC1)c1ccc(Nc2ncc3cccc(OC4CCNCC4)c3n2)cc1F [Compound 444, N-cyclopropyl-2-fluoro-4-(8-(piperidin-4-yloxy)quinazolin-2-ylamino)benzamide] |
